According to the NIST ThermoML archive (doi:10.1021/je034062r):
± gives the expanded uncertainty stated by the source.

Columns and labels:
[1] = 101.3 kPa, Liquid mixture 1
[2] = xn = mol fraction of the nth substance listed; conditions: for mass density: Liquid; for surface tension liquid-gas: Pendant drop shape

CN1CCCC1=O [N-methylpyrrolidone] + CCCCCCC
[1]
Conditions | interfacial tension [mN/m]
297.76 K | 1.202 ± 0.12
302.78 K | 0.93 ± 0.093
307.81 K | 0.68 ± 0.068
312.84 K | 0.45 ± 0.045
317.79 K | 0.24 ± 0.024
320.65 K | 0.137 ± 0.016
322.8 K | 0.079 ± 0.016
323.75 K | 0.055 ± 0.016
324.8 K | 0.033 ± 0.016
325.43 K | 0.019 ± 0.016
325.81 K | 0.012 ± 0.016
326.1 K | 0.009 ± 0.016

CCCCCCC [heptane] + C1CCCCC1
[2], x2 = 0
Conditions | mass density [kg/m3] | surface tension liquid-gas [mN/m]
283.15 K | 692.2 ± 0.7 | –
287.81 K | – | 20.7 ± 0.26
288.15 K | 688 ± 0.7 | –
293.15 K | 683.8 ± 0.7 | –
297.82 K | – | 19.63 ± 0.25
298.15 K | 679.5 ± 0.7 | –
303.15 K | 675.2 ± 0.7 | –
307.86 K | – | 18.68 ± 0.24
308.15 K | 670.9 ± 0.7 | –
313.15 K | 666.5 ± 0.7 | –
317.86 K | – | 17.76 ± 0.24
318.15 K | 662.1 ± 0.7 | –
323.15 K | 657.7 ± 0.7 | –
327.88 K | – | 16.68 ± 0.23
328.15 K | 653.2 ± 0.7 | –
333.15 K | 648.7 ± 0.7 | –

Cc1ccccc1 [toluene] + CC(C)=O
[2], x1 = 1
Conditions | mass density [kg/m3] | surface tension liquid-gas [mN/m]
283.15 K | 875.9 ± 1.3 | –
287.81 K | – | 28.93 ± 0.31
288.15 K | 871.4 ± 1.3 | –
293.15 K | 866.9 ± 1.3 | –
297.82 K | – | 27.76 ± 0.3
298.15 K | 862.4 ± 1.4 | –
303.15 K | 857.8 ± 1.4 | –
307.86 K | – | 26.6 ± 0.29
308.15 K | 853.2 ± 1.4 | –
313.15 K | 848.6 ± 1.5 | –
317.86 K | – | 25.46 ± 0.28
318.15 K | 843.9 ± 1.5 | –
323.15 K | 839.2 ± 1.5 | –
327.88 K | – | 24.29 ± 0.27
328.15 K | 834.5 ± 1.5 | –
333.15 K | 829.8 ± 1.6 | –

CN(C)C=O [dimethylformamide] + CCCCCCC
[1]
Conditions | interfacial tension [mN/m]
297.83 K | 2.49 ± 0.12
302.83 K | 2.19 ± 0.11
307.85 K | 1.87 ± 0.09
312.85 K | 1.59 ± 0.08
317.86 K | 1.26 ± 0.06
322.86 K | 0.93 ± 0.047
327.88 K | 0.66 ± 0.033
332.88 K | 0.42 ± 0.021
334.87 K | 0.302 ± 0.016
336.86 K | 0.213 ± 0.016
337.88 K | 0.169 ± 0.016
338.88 K | 0.122 ± 0.016
339.87 K | 0.086 ± 0.016
340.87 K | 0.042 ± 0.016
341.25 K | 0.032 ± 0.016
341.88 K | 0.02 ± 0.016
342.18 K | 0.011 ± 0.016

CC(C)=O [acetone] + C1CCCCC1
[2]
Conditions | mass density, 288.15 K [kg/m3] | mass density, 298.15 K [kg/m3] | mass density, 308.15 K [kg/m3] | mass density, 318.15 K [kg/m3] | surface tension liquid-gas, 287.81 K [mN/m] | surface tension liquid-gas, 297.82 K [mN/m] | surface tension liquid-gas, 307.86 K [mN/m] | surface tension liquid-gas, 317.86 K [mN/m]
x2 = 0 | 798.2 ± 0.9 | 787 ± 0.9 | 775.4 ± 1 | 762.5 ± 1 | 23.94 | 22.78 | 21.59 | 20.33
x2 = 0.1002 | 790 ± 1.1 | 779.7 ± 1.1 | 768.4 ± 1.1 | 756.9 ± 1.1 | 23.54 | 22.25 | 21.03 | 19.91
x2 = 0.2001 | 786.6 ± 1 | 775.3 ± 1 | 764.2 ± 1.1 | 753 ± 1.1 | 23.19 | 22.02 | 20.78 | 19.63
x2 = 0.2993 | 783.2 ± 1 | 772.3 ± 1 | 761.4 ± 1 | 750.2 ± 1.1 | 23.23 | 22.02 | 20.82 | 19.63
x2 = 0.3979 | 781.1 ± 1 | 769.7 ± 1 | 759.6 ± 1 | 748.6 ± 1.1 | 23.33 | 22.08 | 20.89 | 19.7
x2 = 0.4964 | 779.7 ± 1 | 769.2 ± 1 | 758.6 ± 1 | 747.8 ± 1 | 23.58 | 22.22 | 21.14 | 20
x2 = 0.6 | 778.9 ± 1 | 768.6 ± 1 | 758.2 ± 1 | 747.6 ± 1 | 23.91 | 22.53 | 21.35 | 20.3
x2 = 0.6975 | 778.9 ± 1 | 768.7 ± 1 | 759.9 ± 1 | 748.3 ± 1.1 | 24.31 | 22.84 | 21.6 | 20.56
x2 = 0.7993 | 779.4 ± 1 | 769.5 ± 1 | 759.6 ± 1 | 749.6 ± 1.1 | 24.69 | 23.24 | 22.08 | 21.04
x2 = 0.8994 | 780.7 ± 1 | 771.1 ± 1 | 761.4 ± 1 | 751.6 ± 1.1 | 25.12 | 23.82 | 22.58 | 21.46

C1CCCCC1 [cyclohexane] + CC(C)=O
[2], x1 = 1
Conditions | mass density [kg/m3] | surface tension liquid-gas [mN/m]
287.81 K | – | 25.34
288.15 K | 783.2 ± 0.9 | –
297.82 K | – | 24.2
298.15 K | 773.9 ± 1 | –
307.86 K | – | 23.02
308.15 K | 764.4 ± 1 | –
317.86 K | – | 21.84
318.15 K | 754.8 ± 1 | –

CCCCCCCCCC [decane] + CN(C)C=O
[1]
Conditions | interfacial tension [mN/m]
292.78 K | 3.78 ± 0.38
297.77 K | 3.41 ± 0.34
302.79 K | 3.1 ± 0.31
307.81 K | 2.72 ± 0.27
312.79 K | 2.4 ± 0.24
317.8 K | 2.09 ± 0.21
322.78 K | 1.82 ± 0.18
327.81 K | 1.53 ± 0.15
332.81 K | 1.24 ± 0.12
337.76 K | 0.95 ± 0.095
342.78 K | 0.69 ± 0.069
346.8 K | 0.48 ± 0.048
348.32 K | 0.37 ± 0.037
350.11 K | 0.32 ± 0.032
352.77 K | 0.19 ± 0.019
353.65 K | 0.15 ± 0.016
354.76 K | 0.105 ± 0.016
355.31 K | 0.083 ± 0.016
355.62 K | 0.07 ± 0.016
356.15 K | 0.056 ± 0.016
356.72 K | 0.035 ± 0.016
357.15 K | 0.019 ± 0.016
357.45 K | 0.012 ± 0.016
